The values below come from patent US9624201B2, “Inhibitors of bruton's tyrosine kinase” (Hoffmann-La Roche Inc., priority 2013, dated 2017).

The target of the assay is Bruton's Tyrosine Kinase (inactivated state) (Homo sapiens (Human), UniProt Q06187). The assay can be described thus: Bruton's Tyrosine Kinase (BTK) Inhibition TR-FRET (Time Resolved FRET) competition assay. The assay is classed as binding. The conditions noted are these: inactivated state of BTK; Kinase Tracer 178; incubated 18-24 h at 14° C. Here is the method:
This BTK competition assay measures compound potency (IC50) for the inactivated state of Bruton's Tyrosine Kinase using FRET (Forster/Flouresence Resonance Energy Transfer) technology. The BTK-Eu complex was incubated on ice one hour prior to use at a starting concentration of 50 nM BTK-Bioease™: 10 nM Eu-streptavidin (Perkin-Elmer Catalog# AD0062). The assay buffer consisted of 20 mM HEPES (pH 7.15), 0.1 mM DTT, 10 mM MgCl2, 0.5 mg/ml BSA with 3% Kinase Stabilizer (Fremont Biosolutions, Catalog # STB-K02). After 1 h, the reaction mixture from above was diluted 10 fold in assay buffer to make 5 nM BTK: 1 nM Eu-Streptavidin complex (donor fluorophore). 18 μl of a mixture of 0.11 nM BTK-Eu and 0.11 nM Kinase Tracer 178 (Invitrogen, Catalog # PV5593,) with BTK-Eu alone as no negative control, was then dispensed into 384-well flat bottom plates (Greiner, 784076). Compounds to be tested in assay were prepared as 10× concentrations and serial dilution in half-log increments was performed in DMSO so as to generate 10 point curves. To initiate the FRET reaction, compounds prepared as 10× stock in DMSO was added to the plates and the plates were incubated 18-24 h at 14° C.
After the incubation the plates were read on a BMG Pherastar Fluorescent plate reader (or equivalent) and used to measure the emission energy from the europium donor fluorophore (620 nm emission) and the FRET (665 nm emission). The negative control well values were averaged to obtain the mean minimum. The positive “no inhibitor” control wells were averaged to obtain the mean maximum. Percent of maximal FRET was calculated using following equation: % max FRET=100×[(FSRcmpd−FSRmean min)/(FSRmean max−FSRmean min)] where FSR=FRET Signal ratio. % Max FRET curves were plotted in Activity Base (Excel) and the IC50(%), hill slope, z′ and % CV were determined. The mean IC50 and standard deviation will be derived from duplicate curves (singlet inhibition curves from two independent dilutions) using Microsoft Excel.
(TR-FRET usually uses a lanthanide donor and a delayed reading to cut background.)

Bruton's Tyrosine Kinase (inactivated state), sequence (Q06187 whole entry): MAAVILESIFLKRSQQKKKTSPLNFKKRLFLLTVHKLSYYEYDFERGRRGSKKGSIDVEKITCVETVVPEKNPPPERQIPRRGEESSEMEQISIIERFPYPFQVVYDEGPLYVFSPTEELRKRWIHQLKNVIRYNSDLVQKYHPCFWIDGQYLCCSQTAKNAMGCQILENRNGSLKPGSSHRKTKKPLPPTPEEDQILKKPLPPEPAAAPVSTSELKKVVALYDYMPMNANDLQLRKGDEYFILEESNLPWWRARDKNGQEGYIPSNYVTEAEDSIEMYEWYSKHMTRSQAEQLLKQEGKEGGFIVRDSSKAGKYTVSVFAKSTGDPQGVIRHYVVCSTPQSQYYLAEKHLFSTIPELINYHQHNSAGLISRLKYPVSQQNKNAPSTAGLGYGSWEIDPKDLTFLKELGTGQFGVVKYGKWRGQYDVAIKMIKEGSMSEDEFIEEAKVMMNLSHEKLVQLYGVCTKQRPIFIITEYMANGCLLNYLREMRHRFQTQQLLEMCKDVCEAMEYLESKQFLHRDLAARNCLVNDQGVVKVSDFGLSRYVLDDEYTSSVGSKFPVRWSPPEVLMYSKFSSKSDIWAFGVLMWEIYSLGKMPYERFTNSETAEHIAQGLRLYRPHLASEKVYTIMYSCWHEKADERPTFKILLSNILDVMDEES

A word on the IC50: it is the midpoint of a concentration-inhibition curve. Read a low IC50 as greater potency. On to `Cc1cc(Oc2cccc(F)c2F)ccc1-n1ncc(C(=O)c2cc3c(-c4cccs4)cccc3[nH]2)c1N` [Compound 5, {5-Amino-1-[4-(2,3-difluoro-phenoxy)-2-methyl-phenyl]-1H-pyrazol-4-yl}-(4-thiophen-2-yl-1H-indol-2-yl)-methanone], for which the IC50 was determined as 214 nM.

`Cc1cc(Oc2cccc(C#N)c2)ccc1-n1ncc(C(=O)c2cc3c(C(=O)N4CCOCC4)cccc3[nH]2)c1N` [Compound 15, 3-(4-{5-Amino-4-[4-(morpholine-4-carbonyl)-1H-indole-2-carbonyl]-pyrazol-1-yl}-3-methyl-phenoxy)-benzonitrile] registered an IC50 of 93.6 nM.

In turn, `Cc1cc(Oc2cccc(F)c2F)ccc1-n1ncc(C(=O)c2cc3c(C(=O)N4CCOCC4)cccc3[nH]2)c1N` [Compound 6, {5-Amino-1-[4-(2,3-difluoro-phenoxy)-2-methyl-phenyl]-1H-pyrazol-4-yl}-[4-(morpholine-4-carbonyl)-1H-indol-2-yl]-methanone] registered a concentration for half-maximal inhibition (IC50) of 11.9 nM.

Regarding `Cc1cc(Oc2cccc(F)c2F)ccc1-n1ncc(C(=O)c2cc3c(-c4ccccc4)cccc3[nH]2)c1N` [Compound 2, {5-Amino-1-[4-(2,3-difluoro-phenoxy)-2-methyl-phenyl]-1H-pyrazol-4-yl}-(4-phenyl-1H-indol-2-yl)-methanone], the IC50 stood at 85.1 nM.

`Cc1cc(Oc2cccc(F)c2F)ccc1-n1ncc(C(=O)c2cc3c(Cc4ccccc4)cccc3[nH]2)c1N` [Compound 9, {5-Amino-1-[4-(2,3-difluoro-phenoxy)-2-methyl-phenyl]-1H-pyrazol-4-yl}-(4-benzyl-1H-indol-2-yl)-methanone] yielded an IC50 of 33.1 nM.

`Cc1cc(Oc2cccc(F)c2F)ccc1-n1ncc(C(=O)c2cc3c(-c4cccc(C#N)c4)cccc3[nH]2)c1N` [Compound 11, 3-(2-{5-Amino-1-[4-(2,3-difluoro-phenoxy)-2-methyl-phenyl]-1H-pyrazole-4-carbonyl}-1H-indol-4-yl)-benzonitrile] gave an IC50 of 59.1 nM.

`Cc1cc(Oc2cccc(C#N)c2)ccc1-n1ncc(C(=O)c2cc3c(C(=O)N4CCN(C)CC4)cccc3[nH]2)c1N` [Compound 16, 3-(4-{5-Amino-4-[4-(4-methyl-piperazine-1-carbonyl)-1H-indole-2-carbonyl]-pyrazol-1-yl}-3-methyl-phenoxy)-benzonitrile] registered a concentration for half-maximal inhibition (IC50) of 39.1 nM.

`Cc1cc(Oc2cccc(F)c2F)ccc1-n1ncc(C(=O)c2cc3c(Br)cccc3[nH]2)c1N` [Compound 1, {5-Amino-1-[4-(2,3-difluoro-phenoxy)-2-methyl-phenyl]-1H-pyrazol-4-yl}-(4-bromo-1H-indol-2-yl)-methanone]: the IC50 amounted to 61.5 nM.

The compound `Cc1cc(Oc2cccc(C#N)c2)ccc1-n1ncc(C(=O)c2cc3c(CC#N)cccc3[nH]2)c1N` [Compound 20, 3-{4-[5-Amino-4-(4-cyanomethyl-1H-indole-2-carbonyl)-pyrazol-1-yl]-3-methyl-phenoxy}-benzonitrile] displayed an IC50 of 8.45 nM.

As to `Cc1cc(Oc2cccc(F)c2F)ccc1-n1ncc(C(=O)c2cc3c(-c4cccc(Cl)c4)cccc3[nH]2)c1N` [Compound 12, {5-Amino-1-[4-(2,3-difluoro-phenoxy)-2-methyl-phenyl]-1H-pyrazol-4-yl}-[4-(3-chloro-phenyl)-1H-indol-2-yl]-methanone], the IC50 was 201 nM.

Regarding `Cc1cc(Oc2cccc(C#N)c2)ccc1-n1ncc(C(=O)c2cc3c(-c4cn[nH]c4)cccc3[nH]2)c1N` [Compound 14, 3-(4-{5-Amino-4-[4-(1H-pyrazol-4-yl)-1H-indole-2-carbonyl]-pyrazol-1-yl}-3-methyl-phenoxy)-benzonitrile], the 50% inhibitory concentration (IC50) came to 8.38 nM. This IC50 is about 24-fold lower than that of the compound before.

Compound `Cc1cc(Oc2cccc(F)c2F)ccc1-n1ncc(C(=O)c2cc3c(-c4ccsc4)cccc3[nH]2)c1N` [Compound 3, {5-Amino-1-[4-(2,3-difluoro-phenoxy)-2-methyl-phenyl]-1H-pyrazol-4-yl}-(4-thiophen-3-yl-1H-indol-2-yl)-methanone] displayed a half-inhibitory concentration (IC50) of 106 nM.

The compound “{5-Amino-1-[4-(2,3-difluoro-phenoxy)-2-methyl-phenyl]-1H-pyrazol-4-yl}-[4-(1-methyl-1H-pyrazol-4-yl)-1H-indol-2-yl]-methanone [Compound 7]” registered a concentration for half-maximal inhibition (IC50) of 65.3 nM.

In turn, `COc1cccc(Cc2cccc3[nH]c(C(=O)c4cnn(-c5ccc(Oc6cccc(C#N)c6)cc5C)c4N)cc23)c1` [Compound 17, 3-(4-{5-Amino-4-[4-(3-methoxy-benzyl)-1H-indole-2-carbonyl]-pyrazol-1-yl}-3-methyl-phenoxy)-benzonitrile] yielded a half-maximal inhibitory concentration (IC50) of 21.1 nM. This IC50 lies about 3.1-fold lower than the previous one.

`Cc1cc(Oc2cccc(F)c2F)ccc1-n1ncc(C(=O)c2cc3c(-c4ccccn4)cccc3[nH]2)c1N` [Compound 8, {5-Amino-1-[4-(2,3-difluoro-phenoxy)-2-methyl-phenyl]-1H-pyrazol-4-yl}-(4-pyridin-2-yl-1H-indol-2-yl)-methanone] returned a concentration for half-maximal inhibition (IC50) of 6.15 nM.

`Cc1cc(Oc2cccc(F)c2F)ccc1-n1ncc(C(=O)c2cc3c(-n4cccn4)cccc3[nH]2)c1N` [Compound 4, {5-Amino-1-[4-(2,3-difluoro-phenoxy)-2-methyl-phenyl]-1H-pyrazol-4-yl}-(4-pyrazol-1-yl-1H-indol-2-yl)-methanone] gave a half-inhibitory concentration (IC50) of 20.8 nM.

Turning to `CNC(=O)c1cccc2[nH]c(C(=O)c3cnn(-c4ccc(Oc5cccc(C#N)c5)cc4C)c3N)cc12` [Compound 21, 2-{5-Amino-1-[4-(3-cyano-phenoxy)-2-methyl-phenyl]-1H-pyrazole-4-carbonyl}-1H-indole-4-carboxylic acid methylamide], the IC50 stood at 13 nM. Against the preceding compound, the IC50 is about 1.6-fold lower.

Turning to `Cc1cc(Oc2cccc(F)c2F)ccc1-n1ncc(C(=O)c2cc3c(-c4cn[nH]c4)cccc3[nH]2)c1N` [Compound 10, {5-Amino-1-[4-(2,3-difluoro-phenoxy)-2-methyl-phenyl]-1H-pyrazol-4-yl}-[4-(1H-pyrazol-4-yl)-1H-indol-2-yl]-methanone], the IC50 was determined as 4.21 nM.

`Cc1cc(Oc2cccc(F)c2F)ccc1-n1ncc(C(=O)c2cc3c(Cc4cccc(C#N)c4)cccc3[nH]2)c1N` [Compound 13, 3-(2-{5-Amino-1-[4-(2,3-difluoro-phenoxy)-2-methyl-phenyl]-1H-pyrazole-4-carbonyl}-1H-indol-4-ylmethyl)-benzonitrile] yielded an IC50 of 29.5 nM.
